The values that follow come from patent publication US12590322B2, “Devices and methods for mitochondria replacement and for generating cellular therapeutics” (NanoCav, LLC, priority 2018, dated 2026).

In series [1] the test system is Adult and neonatal human dermal fibroblast (HDF) cells. Description: mtDNA depletion by ddC in human dermal fibroblasts. The following applies: 5 μM ddC, after sixteen days. It is filed as cell-based. An excerpt: FIGS. 12A-12C show generation of mtDNA depleted human dermal fibroblasts cells. […] 143 Rho Null (lacking mtDNA) and a control are also shown. […] GAPDH expression, used as a reference gene, was also shown in adult and neonatal human dermal fibroblast (HDF) cells. FIG. 12B is a table showing depletion of mtDNA in HDF adult and HDF neonatal cells at days sixteen and thirty. FIG. 12C is a line plot showing the data of FIG. 12B.
(§1) A 1000× stock of 2′,3′-dideoxycytidine (ddC, Sigma, Cat. #D5782) was prepared in water. BJ, ADF, and NDF cells cultured in complete media with 50 µg/ml uridine were added ddC to an appropriate final concentration. Cells were passaged every 3-4 d and fresh ddC was added over the course of 3 weeks. After ddC treatment, total DNA was extracted (Qiagen, Cat. #69504) and mtDNA quantified using SYBR Select Master Mix for CFX (Life Technologies, Cat. #4472942). mtDNA-encoded ND1 was probed with the following primers: forward: […] (SEQ ID NO: 1); reverse: […] (SEQ ID NO: 2). mtDNA levels were normalized to nuclear-encoded GAPDH using the following primers: forward: […] (SEQ ID NO: 3); reverse: […] (SEQ ID NO: 4). qPCR was run on a BioRad CFX Thermal Cycler using the following protocol: 1) 50° C. for 2 min, 2) 95° C. for 2 min, 3) 40 cycles-95° C. for 10 s and 60° C. for 45 s. Samples were compared by calculating ΔΔCT and fold differences.

In series [2] the test system is BJ cells. Description: mtDNA depletion by ddC in BJ primary fibroblasts, qPCR verification. It is filed as cell-based, human. Conditions: for mtDNA levels, % of initial untreated levels: 2.5 μM or 5 μM ddC. On the procedure:
FIGS. 11A-11B show generation of mtDNA depleted primary fibroblast lines in BJ cells. FIG. 11A is a bar chart showing that a minimum concentration of 2.5 μM of 2′,3′ dideoxycytidine (ddC), a reverse transcriptase inhibitor, was required to deplete mtDNA to below 5% of the original level, three weeks from initiation of treatment. […] FIG. 11B is a line plot showing the information of FIG. 11A.
as §1

Series [3] relates to BJs. Description: Mutation signature comparison of ddC-treated BJs vs BJ parent, 30X whole genome sequencing. It is filed as cell-based, human. Conditions: for # SNVs / % of Total: 5 μM ddC treated BJs vs BJ parent. How it is done:
A comparison of mutation signatures between 5 μM-ddC treated BJs and the BJ parent with 30× whole genome sequencing.

Where [4] appears, read: 5 μM ddC-treated BJs vs. BJ parent.
Setting [5] is: ddC-treated cells, whole genome sequencing.

For the molecule `Nc1ccn([C@H]2CC[C@@H](CO)O2)c(=O)n1` [ddC, 2′,3′-dideoxycytidine], the mtDNA depletion entry in series [1] was “mtDNA depletion”. In addition, the “mtDNA levels, % of initial untreated levels” value in series [2] (three weeks from initiation of treatment) is “below 0.5%”; in series [2] (two weeks), “below 2%”. Besides, in series [2] (BJ cells, three weeks from initiation of treatment), the “minimum concentration required to deplete mtDNA to below 5% of the original level” value came to 2.5 µM. In addition, the Mutation rate in series [3] (setting [4]) was 0.6/MB. Moreover, the Non-synonymous mutations in series [3] (setting [4]) amounted to 26. Further, the “# SNVs” value in series [3] (Signature 5) is recorded as 2,230; in series [3] (Signature 8), 873; in series [3] (Signature 9), 854; in series [3] (Signature 16) it was 200; in series [3] (Signature 18) it was 471. Moreover, the “% of Total” value is reported as 42.0% in series [3] (Signature 5); 16.0% in series [3] (Signature 8); 16.0% in series [3] (Signature 9); 4.0% in series [3] (Signature 16); 9.0% in series [3] (Signature 18). In series [3] (setting [5]), the “abundance of non-synonymous mutations” value is “low abundance”. The “changes in DNA copy number” value in series [3] (setting [5]) is given as “no changes in DNA copy number”. Further, in series [3] (setting [5]), the chromosomal breaks result is “no chromosomal breaks”.
